From PubChem BioAssay (NCI)
Where “and” joins values, the source holds several entries; their conditions need not be identical. Equal entries are not always repeated.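 96-well plates; 48 h exposure; 5 concentrations. Endpoints by linear interpolation between flanking doses. Not reached: highest tested concentration assigned. The concentration for 50% growth inhibition is given as GI50. Definition used: TGI = concentration required for complete inhibition of growth.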

Key:
Assay in all cases: DTP human tumour cell line panel, 48 h
UACC-257 melanoma = system: UACC-257 melanoma
OVCAR-5 ovarian = system: OVCAR-5 ovarian
HCT-15 colon = system: HCT-15 colon
SW-620 colon = system: SW-620 colon
NCI-H23 lung = system: NCI-H23 lung
RXF 393 renal = system: RXF 393 renal
SK-OV-3 ovarian = system: SK-OV-3 ovarian
NCI-H226 lung = system: NCI-H226 lung
RPMI-8226 leukemia = system: RPMI-8226 leukemia
SR leukemia = system: SR leukemia
SK-MEL-28 melanoma = system: SK-MEL-28 melanoma
NCI-H460 lung = system: NCI-H460 lung
U251 CNS = system: U251 CNS
A498 renal = system: A498 renal
NCI/ADR-RES ovarian = system: NCI/ADR-RES ovarian
PC-3 prostate = system: PC-3 prostate
BT-549 breast = system: BT-549 breast

SMILES	TGI (UACC-257 melanoma)	TGI (OVCAR-5 ovarian)	TGI (HCT-15 colon)	TGI (SW-620 colon)	TGI (NCI-H23 lung)	TGI (RXF 393 renal)	TGI (SK-OV-3 ovarian)	TGI (NCI-H226 lung)	TGI (RPMI-8226 leukemia)	TGI (SR leukemia)	TGI (SK-MEL-28 melanoma)	TGI (NCI-H460 lung)	TGI (U251 CNS)	TGI (A498 renal)	TGI (NCI/ADR-RES ovarian)	TGI (PC-3 prostate)	GI50 (HCT-15 colon)	GI50 (RXF 393 renal)	GI50 (NCI-H460 lung)	TGI (BT-549 breast)
N#CC(NNC(=O)Cc1ccccc1)c1cccc(O)c1 (stereo not given)	> 100 µM	> 100 µM	> 100 µM	> 100 µM	> 100 µM	> 100 µM	> 100 µM	> 100 µM	> 100 µM	> 100 µM	> 100 µM	> 100 µM	> 100 µM	–	–	–	–	–	–	–
O=C/C(=C1/C=Cc2cc([N+](=O)[O-])ccc2S1)c1ccccc1	> 100 µM	> 100 µM	> 100 µM	–	> 100 µM	> 100 µM	> 100 µM	> 100 µM	> 100 µM	> 100 µM	> 100 µM	> 100 µM	> 100 µM	> 100 µM	> 100 µM	> 100 µM	–	–	–	–
CC1=CC(=O)CC2(C)CCC(C(C)CC(=O)CC(C)C)CC12OO (stereo not given)	31.5 µM and 33 µM	35.5 µM and 47.5 µM	30.1 µM and > 100 µM	31.9 µM and 35.7 µM	39.8 µM and 54.9 µM	26.2 µM and > 100 µM	–	43.5 µM and 37.7 µM	76.5 µM and 46.1 µM	41.5 µM and 41.4 µM	28.5 µM and 32.5 µM	25.1 µM and > 100 µM	31.4 µM and 33.1 µM	31.5 µM and 49.4 µM	56.6 µM and 81.2 µM	29.1 µM and 27.3 µM	16.5 µM and 35.3 µM	12.5 µM and 32.6 µM	11.6 µM and 31 µM	–
O[C@]12C=C(c3nccc4c3[nH]c3ccccc34)[C@@H]3CCN(CCCC/C=C\CC1)C[C@@]31CC3/C=C\CCCCN3[C@H]12 (stereo not given in full)	3.39 µM	1.83 µM	1.02 µM	4.65 µM	2.53 µM	–	0.743 µM	5.2 µM	–	–	2.76 µM	2.02 µM	1.79 µM	2.83 µM	4.16 µM	12 µM	–	–	–	10.4 µM
CC(C)Oc1c(C2(c3ccccc3)SCCCS2)c(=O)c1=O	> 100 µM	> 100 µM	> 100 µM	> 100 µM	> 100 µM	> 100 µM	> 100 µM	> 100 µM	–	–	> 100 µM	> 100 µM	> 100 µM	> 100 µM	> 100 µM	> 100 µM	–	–	–	> 100 µM
COC(=O)C1(NC(=O)C(Cc2ccccc2)N(C(=O)OC(C)(C)C)C(=O)OC(C)(C)C)CCCC1 (stereo not given)	–	> 100 µM	> 100 µM	> 100 µM	> 100 µM	–	> 100 µM	> 100 µM	47.1 µM	> 10 µM	> 100 µM	> 100 µM	> 100 µM	> 100 µM	> 100 µM	> 100 µM	–	–	–	–
CC1(C)OP(=O)(c2ccccc2)C=C1Sc1ccc([N+](=O)[O-])cc1[N+](=O)[O-] (stereo not given)	> 100 µM	> 100 µM	> 100 µM	> 100 µM	> 100 µM	–	> 100 µM	> 100 µM	–	42.9 µM	> 100 µM	> 100 µM	> 100 µM	> 100 µM	> 100 µM	> 100 µM	–	–	–	–
COC(=O)C1CC2C=CC=CC(=O)C2(C)C1 (stereo not given)	> 100 µM	> 100 µM	> 100 µM	90.1 µM	> 100 µM	–	> 100 µM	> 100 µM	59.5 µM	76.5 µM	–	> 100 µM	> 100 µM	> 100 µM	–	–	–	–	–	–
